Experimental data published in patent publication US20050255458A1, “Drug discovery assays based on the biology of chronic disease” (priority 2002, published 2005).
Where two headings read alike, the source gives them in different places.

Key:
[1] = in vivo; cited from earlier work
[2] = system: U251.3 glioma cells; conditions: soluble, 100 μg/ml; fibronectin 10 μg/ml; 24 and 48 hours; cited from earlier work
[3] = system: NF-κB; conditions: rabbit, in vivo; cited from earlier work
[4] = system: HIV-1; assay: Total HIV-1 LTR DNA by PCR (Pauza 1994); conditions: scale of 1 to 5 (1 is lowest)
[5] = system: HIV-1; assay: HIV-1 DNA regression on years since seroconversion (Chun 1997); conditions: therapy including the drug; HIV-1 DNA per 10^6 resting CD4+ T-cells
[6] = system: HIV-1; assay: HIV-1 DNA load change over 80 weeks (Bruisten); type: in vivo, human; conditions: monotherapy; ddC calculated as ddC+AZT minus AZT
[7] = system: HIV-1; parameters: key to Effect on HIV DNA: ↓↓: Two arrows indicates larger change; conditions: cited from earlier work
[8] = system: TF mRNA; conditions: obese mice, 10 to 20 weeks of age; cited from earlier work
[9] = system: U937; conditions: vs controls, p<0.05; cited from earlier work
[10] = combination treatment including the drug; cited from earlier work
[11] = system: rabbits; conditions: atherogenic diet; cited from earlier work
[12] = system: rhesus monkeys; conditions: atherogenic diet; cited from earlier work
[13] = target: T1, ACE (Homo sapiens, UniProt P12821); parameters: randomly assigned 9,297 high-risk patients; from tissue; host or cells: patients, in vivo; conditions: cited from earlier work
[14] = target: T1, ACE; parameters: randomly assigned 9,297 high-risk patients; from tissue; host or cells: patients, in vivo; conditions: cited from earlier work; remark: listed apart in the source
[15] = target: T1, ACE; parameters: from tissue; host or cells: patients, in vivo; conditions: 5 or 10 mg/day, 4 years, vs placebo; cited from earlier work
[16] = system: apoE(−/−) mice; conditions: ramipril 1 mg/kg/day, 10 weeks; cited from earlier work
[17] = system: NF-κB; conditions: cited from earlier work
[18] = system: apolipoprotein E deficient mice; conditions: 0.1 ml of 10^−7M per mouse, intraperitoneally, once a day for 30 days; cited from earlier work
[19] = system: TF; conditions: in vitro treatment; cited from earlier work
[20] = system: neutrophils; conditions: cited from earlier work
[21] = system: apoE(−/−) mice; conditions: 500 or 1,000 ng/min/kg, 1 month; cited from earlier work
[22] = system: TF; conditions: cited from earlier work
[23] = system: LDLR(−/−) mice; conditions: ≈5 mg/kg/day, 18 weeks; cited from earlier work
[24] = system: c-Rel/p65; conditions: cited from earlier work
[25] = system: leukocytes; conditions: 5-20 mg/kg/day, oral; cited from earlier work
[26] = system: TF; conditions: 0.5 mg/kg/day, cited from earlier work
[27] = system: leukocytes; conditions: low concentrations, 20 hours; cited from earlier work
[28] = system: TF; conditions: cited from earlier work; remark: listed apart in the source
[29] = system: human lymphocytes; conditions: 0.1 and 1 mM; cited from earlier work
[30] = system: CD18; conditions: 10^−8 M for 10 min, vs unstimulated cells; cited from earlier work
[31] = system: Lp(a); conditions: 2 g administered daily; cited from earlier work

T1 sequence (P12821 30-1306): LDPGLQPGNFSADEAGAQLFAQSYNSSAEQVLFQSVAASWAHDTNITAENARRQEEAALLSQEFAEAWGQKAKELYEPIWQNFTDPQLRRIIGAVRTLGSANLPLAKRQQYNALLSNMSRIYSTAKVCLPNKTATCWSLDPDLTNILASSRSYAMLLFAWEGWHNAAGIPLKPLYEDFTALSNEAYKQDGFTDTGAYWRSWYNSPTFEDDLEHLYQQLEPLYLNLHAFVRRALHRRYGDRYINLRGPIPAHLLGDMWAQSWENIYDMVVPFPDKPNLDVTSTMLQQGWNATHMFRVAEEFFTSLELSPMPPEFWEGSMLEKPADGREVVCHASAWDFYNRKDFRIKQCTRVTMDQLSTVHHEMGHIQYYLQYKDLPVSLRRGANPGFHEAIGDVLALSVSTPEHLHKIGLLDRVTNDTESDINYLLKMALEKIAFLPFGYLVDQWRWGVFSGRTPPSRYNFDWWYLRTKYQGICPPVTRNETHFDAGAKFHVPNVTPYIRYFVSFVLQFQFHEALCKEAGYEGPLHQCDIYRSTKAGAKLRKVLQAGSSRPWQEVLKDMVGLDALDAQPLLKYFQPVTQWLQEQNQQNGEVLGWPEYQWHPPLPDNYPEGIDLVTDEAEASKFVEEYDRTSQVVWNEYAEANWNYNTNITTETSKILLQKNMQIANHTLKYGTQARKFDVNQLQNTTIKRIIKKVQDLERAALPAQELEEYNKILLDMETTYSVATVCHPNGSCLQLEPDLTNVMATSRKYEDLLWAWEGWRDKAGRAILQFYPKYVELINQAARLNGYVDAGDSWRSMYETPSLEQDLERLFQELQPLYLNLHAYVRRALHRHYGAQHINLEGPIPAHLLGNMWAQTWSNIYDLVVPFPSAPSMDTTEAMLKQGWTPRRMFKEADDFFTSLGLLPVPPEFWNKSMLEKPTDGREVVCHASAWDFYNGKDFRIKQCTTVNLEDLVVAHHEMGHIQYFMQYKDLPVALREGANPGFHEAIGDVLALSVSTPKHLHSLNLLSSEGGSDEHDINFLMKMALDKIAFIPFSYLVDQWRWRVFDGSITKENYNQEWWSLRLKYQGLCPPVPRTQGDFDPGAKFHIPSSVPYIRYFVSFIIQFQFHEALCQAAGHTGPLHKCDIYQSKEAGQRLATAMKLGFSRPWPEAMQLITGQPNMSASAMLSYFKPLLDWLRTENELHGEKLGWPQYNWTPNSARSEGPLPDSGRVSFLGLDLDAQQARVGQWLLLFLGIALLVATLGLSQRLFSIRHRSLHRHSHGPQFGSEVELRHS

Compound: CCCCNC(=O)NS(=O)(=O)c1ccc(C)cc1 [Tolbutamide]
- atherosclerosis [1]: ^IIITolbutamide induced atherosclerosis.

Compound: TNC: a large ECM glycoprotein secreted by a variety of cells
- migration distance [2]: significantly increased migration distance

Compound: CCOC(=O)[C@H](CCc1ccccc1)N[C@@H](C)C(=O)N1Cc2ccccc2C[C@H]1C(=O)O [quinapril]
- NF-κB activity in atherosclerotic vessels [3]: decreased the NF-κB activity

Compound: Cc1cn([C@H]2C[C@H](N=[N+]=[N-])[C@@H](CO)O2)c(=O)[nH]c1=O [AZT, Zidovudine]
- average ranking of viral DNA load [4]: 2.74
- average difference between expected and observed viral DNA copies [5]: +317 copies
- mean log change from baseline in viral DNA over all time points [6]: −0.05
- change in viral DNA ([7]; week 80): increase

Compound: CCOC(=O)[C@H](CCc1ccccc1)N[C@H]1CS[C@H](c2cccs2)CN(CC(=O)O)C1=O [temocapril]
- TF mRNA in cardiac tissue [8]: attenuated the increase in TF mRNA

Compound: CC(C)CCC[C@@H](C)[C@H]1CC[C@H]2[C@@H]3C(=O)C=C4C[C@@H](O)CC[C@]4(C)[C@H]3CC[C@]12C [7-ketocholesterol]
- GSH content [9]: lower GSH content

Compound: CNCCC(Oc1ccc(C(F)(F)F)cc1)c1ccccc1 (stereo not drawn) [Fluoxetine]
- effect on body weight [1]: ^IIFluoxetine produces a transient weight loss leading to gain in body weight in the long term.

Compound: Nc1ccn([C@H]2CC[C@@H](CO)O2)c(=O)n1 [ddC, zalcitabine]
- average ranking of viral DNA load [4]: 2.71
- association with fat redistribution (FR) [10]: significantly associated with the absence of FR
- mean log change from baseline in viral DNA over all time points [6]: −0.1546

Compound: CN1CCN(CCCN2c3ccccc3Sc3ccc(C(F)(F)F)cc32)CC1 [trifluoperazine]
- rate of lesion formation [11]: decreased the rate of lesion formation
- rate of lesion formation [12]: decreased the rate of lesion formation

Compound: OC[C@@H]1CC[C@H](n2cnc3c(O)ncnc32)O1 [ddI, 2′,3′-dideoxyinosine]
- average ranking of viral DNA load [4]: 2.25
- association with fat redistribution (FR) [10]: significantly associated with absence of FR
- average difference between expected and observed viral DNA copies [5]: −828 copies
- Effect on HIV DNA ([7]; in vivo): ↓↓

Compound: CCOC(=O)[C@H](CCc1ccccc1)N[C@@H](C)C(=O)N1[C@H](C(=O)O)C[C@@H]2CCC[C@@H]21 [ramipril]
- progression slope of the mean maximum carotid intimal medial thickness (IMT) ([13]; 10 mg/day, 4.5 years): 0.0137±0.0024 mm/year
- decrease of progression of carotid intima media thickness ([13]; at 4.5 years): 0.008 mm per year
- rate of death from cardiovascular causes ([14]; 10 mg/day, average follow up 4.5 years): 6.1%
- rate of cardiac arrest ([14]; 10 mg/day): 0.8%
- rate of complications related to diabetes ([14]; 10 mg/day): 6.4%
- rate of death from any cause ([14]; 10 mg/day): 10.4%
- rate of heart failure ([14]; 10 mg/day): 9.1%
- rate of myocardial infarction ([14]; 10 mg/day): 9.9%
- rate of revascularization procedures ([14]; 10 mg/day): 16.3%
- rate of stroke ([14]; 10 mg/day): 3.4%
- RR of cardiac arrest ([14]; vs placebo): 0.62
- RR of complications related to diabetes ([14]; vs placebo): 0.84
- RR of death from any cause ([14]; vs placebo): 0.84
- RR of death from cardiovascular causes ([14]; vs placebo): 0.74
- RR of heart failure ([14]; vs placebo): 0.77
- RR of myocardial infarction ([14]; vs placebo): 0.80
- RR of revascularization procedures ([14]; vs placebo): 0.85
- RR of stroke ([14]; vs placebo): 0.68
- changes in thickness of the common carotid artery wall, or carotid plaque height [15]: no significant difference
- lesion area [16]: 6,679±978 μm^2

Compound: angiotensin II (DRVYIHPF; Angiotensin-2; UniProt P01019 25-32, looked up)
- NF-κB activation [17]: increased NF-κB activation
- lesion area [18]: 5,000 μm^2
- TF antigen and mRNA [19]: dose-depended increase in TF antigen and mRNA
- velocity ([20]; concentration of 10^−11): 88 % of maximum velocity
- concentration of peak velocity ([20]; neutrophils): 10^−10
- development of AAA [21]: promotes the development of AAA
- rate of atherosclerotic lesion formation in the thoracic aorta [21]: increases the rate of atherosclerotic lesion formation

Compound: CC(=O)Oc1ccccc1C(=O)O [aspirin, Acetylsalicylic Acid]
- TF staining area in plaque ([22]; non-smokers): 2.0±2%
- TF staining area in plaque ([22]; smokers): 4.4±4%
- decrease in NF-κB binding activity in the aortas [23]: 34%
- decrease in the positive area for macrophages [23]: 57%
- increase in the positive area for SMC [23]: 77%
- LPS-induced translocation of c-Rel/p65 [24]: inhibited the LPS-induced translocation of c-Rel/p65
- increase of leukocyte migration relative to control values [25]: 20-70%
- increase in TF concentration compared to non-smoker mice (Western blotting) [26]: 1.3±0.17 fold
- TF immunoreactive area ([26]; smoker mice, 8 weeks): 6.5±4.5%
- cell migration [27]: increased cell migration
- LPS-induced increase in TF mRNA and protein level [28]: dose-dependently inhibited
- migration of human lymphocytes [29]: stimulated migration of human lymphocytes

Compound: CSCC[C@H](NC=O)C(=O)N[C@@H](CC(C)C)C(=O)N[C@@H](Cc1ccccc1)C(=O)O [fMLP, N-formylmethionyl-leucyl-phenylalanine]
- increase in CD18 surface membrane concentration [30]: 4 fold

Compound: O=C(O)c1cccnc1 [niacin]
- decrease of Lp(a) [31]: 27%
